What was measured:
[1] = test system: Human breast cancer cell MCF-7; assay: Cellular antiproliferative assay (MTT, 5 days), MCF-7; assay type: cell-based; conditions: Homo sapiens, MCF7, 120 h, MCF-7 cells, 5 days incubation
Procedure, shortened: (§1)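 MTT read-out at 570 nm after 3 h MTT incubation and isopropanol/HCl/NP-40 solubilisation; cells seeded at 50,000 cells/ml in DMEM with 10% FBS, 37 °C, 5% CO2, compound exposure 5 days. Viability calculated relative to 0.1% DMSO control and blank medium.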

[2] = Preclinical rat pharmacokinetic test; assay type: in vivo; conditions: male SD rats, gavage (p.o.), 10 mg/kg, plasma
Method: Healthy adult SD rats, male, 6-8 weeks old, weighing 200-300 g. EDTA-Na2 anticoagulant. Analytical balance, animal weight scale, magnetic stirrer, freezing centrifuge, single-channel manual pipette. About 10 mg of the sample to be tested was precisely weighed, the converted 5% DMSO was added to dissolve, and then 10 percent solutol HS-15 and 85% saline were added, ultrasonic treatment was performed, vortex mixed, to obtain the solution having a concentration of 1 mg/mL; freshly prepared before use. Animals were kept in rat cages and fasted (not less than 10 h) the day before the test, but not water fasted; on the day of the test, they were weighed and labeled at the tail. Blank blood was collected before drug administration. Blood was collected from the tail vein. • Route of administration: gavage (p.o.). • Dose: 10 mg/kg • Administration volume: 10 mL/kg • Operation procedure: Hold the rat with the left hand with anti-biting gloves, made it stand upright, extent the 16-gauge gavage needle from the throat in the mouth, and then injected the drug into the stomach when there was no obvious resistance. Before and 0.5 […] and 24 h after the administration of the drug, 0.1 ml of whole blood from the test animal was collected in EDTA-Na2 anticoagulant tubes, which was mixed upside down for 3-4 times and then centrifuged at 10,000 g for 5 min at 4° C. to isolate the plasma, which was stored at -80° C. for testing. Blood was collected from the tail vein. […] Pipetted 25 μL of rat blank plasma in a centrifuge tube respectively, added 25 μL of prepared standard series solution (prepared in methanol), then added 200 μL of internal standard solution (prepared in methanol), vortexed and mixed for 2 min, centrifuged at 4° C., 10,000 g for 10 min. Unknown plasma samples treatment: 25 μL of rat plasma containing drug was aspirated, 25 μL of methanol and 200 μL of internal standard solution were added sequentially, vortexed and mixed for 2 min, and then centrifuged at 4° C. and 10,000 g for 10 min. The supernatant was extracted for LC/MS/MS detection. Shimadzu liquid phase and Triple Quad TM 6500+AB mass spectrometry were utilized to establish a quantitative assay for the compounds to be tested. The pro-drug concentration in plasma was determined. The blood drug concentration-time curves were plotted, and the main pharmacokinetic parameters were calculated using the non-compartment model in winnonlin Phoenix software, and the detailed data were shown in Table 3.

[3] = test system: human mantle cell lymphoma cell JEKO-1; assay: Cellular antiproliferative assay (MTT, 5 days), JEKO-1; assay type: cell-based; conditions: Homo sapiens, 120 h, JEKO-1 cells, 5 days incubation
Procedure, shortened: as §1

[4] = test system: ovarian cancer cell A2780; assay: Cellular antiproliferative assay (MTT, 5 days), A2780; assay type: cell-based, human; conditions: Homo sapiens, 120 h, A2780 cells, 5 days incubation
Procedure, shortened: as §1

SMILES: C[C@H]1CCN(C)c2nc3c(F)cc(-c4nc(N[C@@H]5CCOC[C@H]5O)ncc4Cl)cc3n21 [TB-92, (3S,4R)-4-((5-chloro-4-((S)-9-fluoro-1,4-dimethyl-1,2,3,4-tetrahydrobenzo[4,5]imidazo[1,2-a]pyrimidin-7-yl)pyrimidin-2-yl)amino)tetrahydro-2H-pyran-3-ol]
- IC50 [1]: ≤ 0.5 µM
- HL— [2]: 1.21 h
- IC50 [3]: ≤ 0.5 µM
- IC50 [4]: ≤ 0.5 µM

SMILES: CC(C)n1c(N2CCOCC2)nc2c(F)cc(-c3nc(N[C@@H]4CCOC[C@H]4O)ncc3Cl)cc21 [TB-12, (3S,4R)-4-((5-chloro-4-(4-fluoro-1-isopropyl-2-morpholino-1H-benzo[d]imidazol-6-yl)pyrimidin-2-yl)amino)tetrahydro-2H-pyran-3-ol]
- IC50 [1]: ≤ 0.5 µM
- HL— [2]: 3.14 h
- IC50 [3]: ≤ 0.5 µM
- IC50 [4]: ≤ 0.5 µM

From patent publication US20260078114A1, “COMPOUND USED AS INHIBITOR OF CDK4 KINASE AND USE THEREOF” (TYK MEDICINES, INC., priority 2022, published 2026)
